Values of other authors as cited in patent US20030104065A1, “Method of preparing solid dispersions” (priority 2002, published 2003).

Conditions: local anesthetic effect, versus lidocaine

## CCCN1CCCC[C@H]1C(=O)Nc1c(C)cccc1C [ropivacaine]
  therapeutic potency relative to lidocaine: about 50 times
